Measurements as given in patent US9944597B2, “Polysubstituted pyrroles having microtubule-disrupting, cytotoxic and antitumor activities and methods of use thereof” (THE BOARD OF REGENTS OF THE UNIVERSITY OF TEXAS SYSTEM, priority 2013, dated 2018).
Like-named read-outs stand apart in the source and are kept apart here.

Columns and labels:
[1] = system: MDA-MB-435 (human melanoma cancer cells); experiment: Antiproliferative SRB assay, MDA-MB-435; type: cell-based; details: Homo sapiens, MDA-MB-435, read-out: MDA-MB-435 Anti-Proliferative Activity, IC50
Experimental: (§1) Cell Culture. Various representative cancer and other cell lines were sourced and grown as described previously [Mooberry, S. L., et al., Mol. Pharm. 72, 132-140 (2007)]. MDA-MB-435 (human melanoma cancer cells), and MDA-MB-231 (human breast cancer cells) were grown in IMEM Richter's Medium (Life Technologies, Grand Island, N.Y.) with 10% FBS (Hyclone, Logan, Utah) and 25 μg/mL gentamicin sulfate (Life Technologies). A-10 (embryonic rat vascular smooth muscle cells) and HeLa (human cervical cancer cells), SK-OV-3 (human ovarian cancer cells) and SK-OV-3-MDR-1-M6/6 (a clone of the SK-OV-3 that was generated from SK-OV-3 cells by adenovirus-mediated expression of MDR1) were grown in Basal Medium Eagle (BME, Sigma-Aldrich, St. Louis, Mo.) containing Earle's salts, 50 μg/ml gentamicin sulfate, and 10% FBS. HeLa cells (a single-cell clone derived from transduction of HeLa cells with wild-type (WT) βIII-tubulin) were grown in Dulbecco's Modified Eagle's Medium (DMEM, Life Technologies) containing 50 μg/mL gentamicin sulfate and 10% FBS.
(§2) Antiproliferative Effects. The pyrrole compounds were evaluated for their antiproliferative effects in a panel of cancer cell lines. Cells were plated into 96-well plates at predetermined densities and allowed to attach and proliferate for 24 hr, and then the compounds were added. After a 48 hr exposure to the compounds, the cells were fixed with trichloroacetic acid and cellular protein was determined using the sulforhodamine B (SRB) assay (Skehan et al., J. Natl. Cancer Inst. 82, 1107-12, (1990); Boyd and Paull Drug Devel. Res. 34, 91-109, (1995)). Concentration response curves were constructed, and the IC50 (the concentration required to inhibit proliferation by 50%) values were determined from the linear portions of the log concentration-response curves as described previously [Tinley, T. L., et al., Cancer Res. 63, 3211-3220, (2003)] as shown in Table 48.

[2] = system: HeLa (human cervical cancer cells); experiment: Antiproliferative SRB assay, HeLa; type: cell-based; details: Homo sapiens, HeLa
Experimental: as §1, §2
(§3) First, drug resistance mediated by the expression of βIII tubulin was evaluated in an isogenic HeLa cell line pair. Expression of the βIII tubulin isotype is associated with clinical drug resistance to the taxanes in ovarian cancer, non small-cell lung cancer and breast cancer [Galmarini, C. M., et al., Clin. Cancer Res. 14, 4511-4516 (2008)]. Secondly, drug resistance mediated by the expression of the drug efflux pump protein, Pgp, was evaluated in the isogenic SK-OV-3 cell line pair. The expression of Pgp can lead to lower intracellular drug concentrations and diminished cytotoxic effects both in vitro and in vivo. All tubulin-binding anticancer drugs used currently in the clinic, except cabazitaxel, are substrates for Pgp, thus limiting their utility in drug resistant tumors [Penson, R. T., et al., Gynecol. Oncol. 93, 98-106 (2004)]. Differences in sensitivity between the parent and transformed cell line, indicative of resistance, was determined by calculating relative resistance (Rr) values in the two pairs of isogenic cell lines (dividing the IC50 of the expressing cell line by the IC50 of the parental cell line).

[3] = system: SK-OV-3 (human ovarian cancer cells); experiment: Antiproliferative SRB assay, SK-OV-3; type: cell-based; details: Homo sapiens
Experimental: as §1, §2
as §3, with “The expression of Pgp can lead to lower intracellular drug concentrations and diminished cytotoxic effects both in vitro and in vivo.” left out

HeLa WT-β-III cells = experiment: Antiproliferative SRB assay, βIII-tubulin expressing HeLa; type: cell-based, human; details: for IC50: Homo sapiens, HeLa, Table 49, βIII tubulin expressing line, 48 hr, SRB assay; for Rr (β-III): relative resistance: IC50 of expressing line divided by IC50 of parental HeLa
Experimental: as §1, §2, §3

SK-OV-3-MDR-1-6/6 cells = experiment: Antiproliferative SRB assay, Pgp expressing SK-OV-3; type: cell-based, human; details: for IC50: Homo sapiens, SK-OV-3, Table 49, Pgp expressing line, 48 hr, SRB assay; for Rr (Pgp): relative resistance: IC50 of expressing line divided by IC50 of parental SK-OV-3
Experimental: as §1, §2
as §3, with “The expression of Pgp can lead to lower intracellular drug concentrations and diminished cytotoxic effects both in vitro and in vivo.” left out

A-10 cells = experiment: Cellular microtubule loss by indirect immunofluorescence; type: cell-based, rat; details: Rattus norvegicus, A10; Table 50; concentration causing approximately 50% loss of interphase microtubules; read-out: EC50 Values (nM) for Microtubule Loss in A-10 cells
Experimental: The effects of representative compounds on cellular microtubules were evaluated in A-10 (embryonic rat vascular smooth muscle cell line) cells using indirect immunofluorescence techniques as previously described (Tinley et al., Cancer Res. 63, 3211-20 (2003)). Cells were visualized using a Nikon Eclipse 80i fluorescence microscope and NIS Elements software. Changes in both interphase and mitotic microtubules were noted and photographed. The EC50 values, the concentration that causes approximately 50% loss of interphase microtubules was determined by evaluating a range of concentrations of each compound and the percent cellular microtubule depolymerization that was observed visually at each concentration was noted.
Microtubules were visualized by indirect immunofluorescence using a β-tubulin antibody, and the DNA was visualized with DAPI. A representative concentration response curve for NT-7-16 is also shown in FIG. 1 that was used to calculate its corresponding EC50 for microtubule loss. Concentration response curves for microtubule loss were plotted using data from at least three experiments for each compound and the corresponding EC50 values for microtubule loss are presented in Table 50.

[4] = Table 48, 48 hr exposure, SRB assay
[5] = Table 48, 48 hr exposure, read-out: HeLa Anti-Proliferative Activity, IC50
[6] = Table 49, parental line, 48 hr, read-out: HeLa IC50
[7] = SK-OV-3, Table 48, 48 hr exposure, read-out: SK-OV-3 Anti-Proliferative Activity, IC50
[8] = SK-OV-3, Table 49, parental line, 48 hr, read-out: SK-OV-3 IC50

| SMILES | IC50 [1, 4] [nM] | IC50 ([1]; Table 52) [nM] | IC50 [2, 5] [nM] | IC50 [2, 6] [nM] | IC50 [3, 7] [nM] | IC50 [3, 8] [nM] | IC50 (HeLa WT-β-III cells) [nM] | Rr (β-III) (HeLa WT-β-III cells) | IC50 (SK-OV-3-MDR-1-6/6 cells) [nM] | Rr (Pgp) (SK-OV-3-MDR-1-6/6 cells) | EC50 (A-10 cells) [nM] | melting point [°C] |
| --- | --- | --- | --- | --- | --- | --- | --- | --- | --- | --- | --- | --- |
| CCOC(=O)c1[nH]c(C=NO)c(-c2ccc(OC)c(OC)c2OC)c1Cl (mixture of isomers) [Example 21, Cis/Trans-3-chloro-4-(2,3,4-trimethoxyphenyl)-5-oximino-1H-pyrrole 2-carboxylic acid ethyl ester] | 87.7 ± 10 | 87.7 ± 10 | 123 ± 6.5 | 123 ± 6.5 | 175 ± 30.4 | 175 ± 30.4 | 109 ± 9.5 | 0.9 | 419 ± 30.4 | 1.9 | 170 | 135 to 140 |
| CCOC(=O)c1[nH]c(C=O)c(-c2ccc(OC)c(OC)c2OC)c1Cl [Example 3, 3-Chloro-4-(2,3,4-trimethoxyphenyl)-5-formyl-1H-pyrrole 2-carboxylic acid ethyl ester] | 64 ± 8.5 | 64 ± 8.5 | 43.5 ± 1.7 | 43.5 ± 1.7 | 67.8 ± 16.2 | 67.8 ± 16.2 | 106 ± 6.6 | 2.4 | 76 ± 22.9 | 1.1 | 107 | 193 to 195 |
| CCOC(=O)c1[nH]c(C=O)c(-c2ccc(OC)c(OC)c2OC)c1I [Example 4, 3-Iodo-4-(2,3,4-trimethoxyphenyl)-5-formyl-1H-pyrrole 2-carboxylic acid ethyl ester] | 76 ± 0.6 | 76 ± 0.6 | 39.9 ± 3.1 | 39.9 ± 3.1 | 66.9 ± 5.8 | 66.9 ± 5.8 | 100 ± 2 | 2.5 | 87 ± 23.6 | 1.3 | 129 | 126 to 128 |
| CCOC(=O)c1[nH]c(C(=O)O)c(-c2ccc(OC)c(OC)c2OC)c1Br [Example 9, 3-Bromo-4-(2,3,4-trimethoxyphenyl)-5-carboxy-1H-pyrrole 2-carboxylic acid ethyl ester] | 1530 | 1530 | 2340 | 2340 | – | – | – | – | – | – | 4600 | 173 to 175 |
| CCOC(=O)c1[nH]c(CN)c(-c2ccc(OC)c(OC)c2OC)c1Br [Example 13, 5-(Aminomethylene)-3-Bromo-4-(2,3,4-trimethoxyphenyl)-1H-pyrrole 2-carboxylic acid ethyl ester] | 15.8 ± 0.9 | 15.8 ± 0.9 | 19.5 ± 0.6 | 19.5 ± 0.6 | 23.1 ± 1.8 | 23.1 ± 1.8 | 15.6 ± 0.4 | 0.8 | 22.4 ± 0.9 | 1.0 | 36 | 176 to 178 |
| CCOC(=O)c1[nH]c(CN)c(-c2ccc(OC)c(OC)c2OC)c1Cl [Example 14] | 13 ± 0.4 | 13 ± 0.4 | 15 ± 0.5 | 15 ± 0.5 | 27.8 ± 1.3 | 27.8 ± 1.3 | 12.3 ± 0.3 | 0.8 | 23.6 ± 1 | 0.8 | 35 | 143 to 145 |
| CCCNC=C1NC(C(=O)OCC)C(Br)=C1c1ccc(OC)c(OC)c1OC (stereo not drawn) [Example 17, 3-Bromo-5-(N-Propylaminomethylene)-4-(2,3,4-trimethoxyphenyl)-1H-pyrrole 2-carboxylic acid ethyl ester] | 2630 | 2630 | 2450 | 2450 | 3020 | 3020 | 2010 | 0.8 | 3570 | 1.2 | 4900 | 143 to 145 |
| CCCNC=C1NC(C(=O)OCC)C(Cl)=C1c1ccc(OC)c(OC)c1OC (stereo not drawn) [Example 18, 3-Chloro-5-(N-Propylaminomethylene)-4-(2,3,4-Trimethoxyphenyl)-1H-pyrrole 2-carboxylic acid ethyl ester] | 12.6 ± 0.4 | 12.6 ± 0.4 | 14.3 ± 0.8 | 14.3 ± 0.8 | 20.7 ± 1.9 | 20.7 ± 1.9 | 11.2 ± 0.4 | 0.8 | 19 ± 1 | 0.9 | 31 | 166 to 168 |
